From publication PMC11271341 (Clinical Pharmacokinetics, 2024)
Like-named read-outs stand apart in the source and are kept apart here. One block for each compound: values may come before it.

Experiments:
[1] = system: OCT2/MATE1; conditions: in vitro; pazopanib as OCT1/MATE1 inhibitor (so in the source); cited from earlier work
[2] = Metformin trough plasma concentration; format: in vivo, human; conditions: n = 18
[3] = system: organic cation transporter 2 (OCT2); conditions: in vitro studies; cited from earlier work
[4] = exceeds the glomerular filtration rate; cited from earlier work
[5] = system: multidrug and toxin extrusion protein 1 (MATE1); conditions: in vitro studies; cited from earlier work
[6] = Trifluridine plasma pharmacokinetics, three-phase crossover study in patients; format: in vivo; conditions: human, oral, median Tmax, range over the three phases, phases A, B and C
[7] = cited from earlier work

SMILES: N.N.[Cl][Pt][Cl] [cisplatin]
change in cisplatin exposure when combined with pazopanib [1]: significant in vitro increase

geometric mean Ctrough ([2]; metformin 500 mg b.i.d. in combination with trifluridine/tipiracil): 240 ng/mL
geometric mean Ctrough ([2]; metformin monotherapy (day 14)): 150 ng/mL
SMILES: CN(C)C(=N)N=C(N)N [metformin]

SMILES: N=C1CCCN1Cc1nc(O)nc(O)c1Cl [tipiracil]
interaction with OCT2 [3]: substrate and inhibitor
renal clearance [4]: ~ 300 mL/min
interaction with MATE1 [5]: substrate and inhibitor

Tmax [6]: 46.8 to 60 min
SMILES: O=c1[nH]c(=O)n([C@H]2C[C@H](O)[C@@H](CO)O2)cc1C(F)(F)F [trifluridine]
increase of area under the curve vs normal renal function (≥ 90 mL/min) ([7]; mild renal impairment (creatinine clearance between 60 and 89 mL/min)): 31%
increase of area under the curve vs normal renal function (≥ 90 mL/min) ([7]; moderate renal impairment (between 30 and 59 mL/min)): 43%
